The results in this text go back to patent publication US20250114374A1, “BCL-2 INHIBITORS” (Newave Pharmaceutical Inc., priority 2021, published 2025).

Broadly, the IC50 is the concentration needed to halve the response being measured.

SMILES strings stand for the structures.

For the test, the system named is RS4; 11 with G101V mutation. Nature of the test: In vitro anti-proliferation assay (ATPlite luminescence) in BCL-2-dependent ALL cell line RS4;11 with G101V mutation. Type of test: cell-based. The conditions noted are these: cellular anti-proliferative IC50, about 72 hours, medium with 10% FBS, ATPlite; read-out: RS411-G101V IC50. A digest of the protocol:
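IC50 came from luminescent ATP quantification (ATPlite) following cell lysis. Compound dose ranges were applied for roughly 72 h to about 1×10^4 G101V-mutant RS4;11 cells per well, in 10% FBS medium.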
(In general: In ATP-based viability assays light output follows the ATP content of the culture.)

On to `Cc1ccccc1[C@@H]1CN(Cc2ccc(F)c(F)c2)CCN1C1CC2(CCN(c3ccc(C(=O)NS(=O)(=O)c4ccc(NCC5CCC(C)(O)CC5)c([N+](=O)[O-])c4)c(N4c5cc6cc[nH]c6nc5O[C@H]5COCC[C@@H]54)c3)CC2)C1` (stereo partly drawn) [Example 154, 4-{2-[(2R)-4-[(3,4-difluorophenyl)methyl]-2-(2-methylphenyl)piperazin-1-yl]-7-azaspiro[3.5]nonan-7-yl}-2-[(3R,8S)-2,5-dioxa-9,15,17-triazatetracyclo[8.7.0.0^{3,8}.0^{12,16}]heptadeca-1(10),11,13,16-tetraen-9-yl]-N-[3-nitro-4-({[(1r,4r)-4-hydroxy-4-methylcyclohexyl]methyl}amino)benzenesulfonyl]benzamide], for which the IC50 turned out to be 27.6 nM. In the case of `Cc1ccccc1[C@@H]1CN(Cc2ccc(N3CCOC[C@H]3C)c(F)c2)CCN1C1CC2(CCN(c3ccc(C(=O)NS(=O)(=O)c4ccc(NC[C@H]5CC[C@](C)(O)CC5)c([N+](=O)[O-])c4)c(N4c5cc6cc[nH]c6nc5O[C@H]5COCC[C@@H]54)c3)CC2)C1` [Example 155, 2-[(3R,8S)-2,5-dioxa-9,15,17-triazatetracyclo[8.7.0.0^{3,8}.0^{12,16}]heptadeca-1(10),11,13,16-tetraen-9-yl]-4-{2-[(2R)-4-({3-fluoro-4-[(3R)-3-methylmorpholin-4-yl]phenyl}methyl)-2-(2-methylphenyl)piperazin-1-yl]-7-azaspiro[3.5]nonan-7-yl}-N-[3-nitro-4-({[(1r,4r)-4-hydroxy-4-methylcyclohexyl]methyl}amino)benzenesulfonyl]benzamide] it was 91.8 nM; in that of `Cc1ccccc1[C@@H]1CN(CC2CCOCC2)CCN1C1CC2(CCN(c3ccc(C(=O)NS(=O)(=O)c4ccc(NC[C@H]5CC[C@](C)(O)CC5)c([N+](=O)[O-])c4)c(N4c5cc6cc[nH]c6nc5O[C@H]5COCC[C@@H]54)c3)CC2)C1` [Example 156, 2-[(3R,8S)-2,5-dioxa-9,15,17-triazatetracyclo[8.7.0.0^{3,8}.0^{12,16}]heptadeca-1(10),11,13,16-tetraen-9-yl]-4-{2-[(2R)-2-(2-methylphenyl)-4-(oxan-4-ylmethyl)piperazin-1-yl]-7-azaspiro[3.5]nonan-7-yl}-N-[3-nitro-4-({[(1r,4r)-4-hydroxy-4-methylcyclohexyl]methyl}amino)benzenesulfonyl]benzamide], 12.2 nM. Under `COc1cc(CN2CCN(C3CC4(CCN(c5ccc(C(=O)NS(=O)(=O)c6ccc(NC[C@H]7CC[C@](C)(O)CC7)c([N+](=O)[O-])c6)c(N6c7cc8cc[nH]c8nc7O[C@H]7COCC[C@@H]76)c5)CC4)C3)[C@@H](c3ccccc3OC(C)C)C2)ccc1C1CC1` [Example 157, 4-(2-((S)-4-(4-cyclopropyl-3-methoxybenzyl)-2-(2-isopropoxyphenyl)piperazin-1-yl)-7-azaspiro[3.5]nonan-7-yl)-N-((4-((((1r,4r)-4-hydroxy-4-methylcyclohexyl)methyl)amino)-3-nitrophenyl)sulfonyl)-2-((5aS,9aR)-6,7,9,9a-tetrahydro-1H-pyrano[3,4-b]pyrrolo[3′,2′:5,6]pyrido[3,2-e][1,4]oxazin-5(5aH)-yl)benzamide] stands 31.8 nM. With `COc1ncc(CN2CCN(C3CC4(CCN(c5ccc(C(=O)NS(=O)(=O)c6ccc(NCC7CCC(C)(O)CC7)c([N+](=O)[O-])c6)c(N6c7cc8cc[nH]c8nc7O[C@H]7COCC[C@@H]76)c5)CC4)C3)[C@@H](c3ccccc3OC(C)C)C2)cc1C` (stereo partly drawn) [Example 158, N-((4-((((1r,4r)-4-hydroxy-4-methylcyclohexyl)methyl)amino)-3-nitrophenyl)sulfonyl)-4-(2-((S)-2-(2-isopropoxyphenyl)-4-((6-methoxy-5-methylpyridin-3-yl)methyl)piperazin-1-yl)-7-azaspiro[3.5]nonan-7-yl)-2-((5aS,9aR)-6,7,9,9a-tetrahydro-1H-pyrano[3,4-b]pyrrolo[3′,2′:5,6]pyrido[3,2-e][1,4]oxazin-5(5aH)-yl)benzamide], the IC50 was determined as 21.2 nM.
